Results taken from patent US8962606B2, “Substituted benzosulphonamides” (Bayer Intellectual Property GmbH, priority 2009, dated 2015).

What was measured:
[1] = test system: A549 cells [human non small cell lung cancer cell line, expressing mutant K-Ras G12S]; assay: A549 Cell Titer Glo (CTG) Proliferation Assay [Assay 2]; assay type: cell-based; settings: 72 hours incubation
Procedure: (§1) HCT116 cells [human colorectal cell line, expressing […]] were plated at a density of 3000 cells/well in 96 well black-clear bottom tissue culture plates (Costar 3603 black/clear bottom) in 100 μl/well DMEM medium (DMEM/Ham's F12) with 10% Fetal Bovine Serum (FBS) and stable Glutamine incubated at 37° C. Sister wells were plated in separate plate for time zero determination. All plates were incubated overnight at 37° C. Take down time zero plate: 100 μl/well CTG solution (Promega Cell Titer Glo solution) were added to time zero wells in sister plate; the plates were mixed for 2 min on orbital shaker to ensure cell lysis, incubated for 10 minutes, luminescence was read on VICTOR3 (Perkin Elmer). Twenty-four hours after cell seeding, test compounds were diluted in 50 μl medium and were added at a final concentration range from as high 10 μM to as low […] depending on the activities of the tested compounds in serial dilutions at a final DMSO concentration of 0.4%. Cells were incubated for 72 hours at 37° C. after addition of the test compound. Then, using a Promega Cell Titer Glo Luminescent® assay kit, 100 μl microliter lysis buffer containing of the enzyme luciferase and its substrate, luciferin mixture, were added to each well and incubated for 10 min at room temperature in the dark to stabilize luminescence signal. The samples were read on VICTOR3 (Perkin Elmer) using Luminescence protocol. The percentage change in cell growth was calculated by normalizing the measurements to the extinctions of the zero point plate (=0%) and the extinction of the untreated (0 μM) cells (=100%). The IC50 values were determined by means of a 4-parameter fit using the company's own software.
Assay 2: A549 Cell Titer Glo (CTG) Proliferation Assay:
A549 cells [human non small cell lung cancer cell line, expressing mutant K-Ras G12S] were seeded at a density of 2000 cells/well in 96 well black-clear bottom tissue culture plates (Costar 3603 black/clear bottom) in 100 μl/well DMEM medium (DMEM/Ham's F12) with 10% Fetal Bovine Serum (FBS) and stable Glutamine incubated at 37° C. Cell Titer Glo proliferation assays for A549 cells were performed with the same protocol as described afore for HCT116 cells.

[2] = test system: HCT116 cells [human colorectal cell line]; assay: HCT116 Cell Titer Glo (CTG) Proliferation Assay [Assay 1]; assay type: cell-based; settings: HCT-116, 72 hours incubation
Description: Cell Titer Glo Proliferation Assay
The adherent tumor cell proliferation assay used to test the compounds of the present invention involves a readout called Cell Titre-Glo developed by Promega (Cunningham, B A “A Growing Issue: Cell Proliferation Assays. Modern kits ease quantification of cell growth” The Scientist 2001, 15(13), 26, and Crouch, S P et al., “The use of ATP bioluminescence as a measure of cell proliferation and cytotoxicity” Journal of Immunological Methods 1993, 160, 8 1-88).
Assay 1: HCT116 Cell Titer Glo (CTG) Proliferation Assay:
as §1

[3] = test system: A375 cells [human melanoma cell line, expressing mutant BRAF V600E]; assay: A375 Crystal Violet (CV) Proliferation Assay [Assay 5]; assay type: cell-based; settings: A-375, 96 h, crystal violet staining, 4 days incubation
Procedure: Assay 5: A375 Crystal Violet (CV) Proliferation Assay:
Cell proliferation for A375 cells [human melanoma cell line, expressing mutant BRAF V600E] was measured by crystal violet (CV) staining: Cultivated human A375 cells were plated out in a density of 1500 cells/measurement point in 200 μl of growth medium (DMEM/HAMS F12 with 10% FBS and 2 mM Glutamine) in a 96-well multititer plate. After 24 hours, the cells from a plate (zero plate) were stained with crystal violet (see below), while the medium in the other plates was replaced by fresh culture medium (200 μl) to which the test substances had been added in various concentrations (0 μM, and in the range 0.3 nM-30 μM; the final concentration of the solvent dimethyl sulphoxide was 0.5%). The cells were incubated in the presence of the test substances for 4 days. The cell proliferation was determined by staining the cells with crystal violet: the cells were fixed by adding 20 μl/measurement point of an 11% glutaraldehyde solution at room temperature for 15 min. After the fixed cells had been washed three times with water, the plates were dried at room temperature. The cells were stained by adding 100 μl/measurement point of a 0.1% crystal violet solution (pH adjusted to pH 3 by adding acetic acid). After the stained cells had been washed three times with water, the plates were dried at room temperature. The dye was dissolved by adding 100 μl/measurement point of a 10% acetic acid solution, and the extinction was determined by photometry at a wavelength of 595 nm. The percentage change in cell growth was calculated by normalizing the measurements to the extinctions of the zero point plate (=0%) and the extinction of the untreated (0 μM) cells (=100%). The IC50 values were determined by means of a 4-parameter fit using the company's own software.

MEK1/2 = settings: second-generation MEK1/2 inhibitor, background [17]; cited from earlier work
colon cancer = settings: oral treatment, mouse models, background [18]; cited from earlier work

Structure (SMILES)	IC50 [1] [nM]	IC50 [2] [nM]	IC50 [3] [nM]	IC50 (MEK1/2)	colon cancer growth in vivo (colon cancer)
CCS(=O)(=O)Nc1cccc(Oc2cc(F)cc(Nc3ccc(I)cc3F)c2NS(N)(=O)=O)c1 [Example 6, N-(3-{5-fluoro-3-[(2-fluoro-4-iodophenyl)amino]-2-(sulfamoylamino)phenoxy}phenyl)ethanesulfonamide]	68.9	100	2.44		
NS(=O)(=O)Nc1cc(Oc2cc(F)cc(Nc3ccc(I)cc3F)c2NS(=O)(=O)C2CC2)ccc1F [Example 14, N-{4-fluoro-2-[(2-fluoro-4-iodophenyl)amino]-6-[4-fluoro-3-(sulfamoylamino)phenoxy]phenyl}cyclopropanesulfonamide]			18.6		
C#Cc1ccc(Nc2cc(F)cc(Oc3cccc(NS(=O)(=O)CC)c3)c2NS(=O)(=O)C2CC2)c(F)c1 [Example 9, N-(2-{3-[(ethylsulfonyl)amino]phenoxy}-6-[(4-ethynyl-2-fluorophenyl)amino]-4-fluorophenyl)cyclopropanesulfonamide]	137	59.6	2.39		
NC(=O)c1c(Nc2ccc(I)cc2F)cc(F)cc1Oc1cccc(NS(N)(=O)=O)c1 [reference compound]	319	208	4.53		
C#Cc1ccc(Nc2cc(F)cc(Oc3cccc(NS(=O)(=O)CC)c3)c2NS(N)(=O)=O)c(F)c1 [Example 10, N-(3-{3-[(4-ethynyl-2-fluorophenyl)amino]-5-fluoro-2-(sulfamoylamino)phenoxy}phenyl)ethanesulfonamide]	86.7	70	7.93		
CCS(=O)(=O)Nc1cccc(Oc2cc(F)cc(Nc3ccc(I)cc3F)c2NS(=O)(=O)C(C)C)c1 [Example 4, N-(2-{3-[(ethylsulfonyl)amino]phenoxy}-4-fluoro-6-[(2-fluoro-4-iodophenyl)amino]-phenyl)propane-2-sulfonamide]	92.5	53.7	15.6		
O=C(NOCC1CC1)c1ccc(F)c(F)c1Nc1ccc(I)cc1Cl [PD184352]				low nanomolar range	inhibit colon cancer growth in vivo
CC(C)S(=O)(=O)Nc1cccc(Oc2cc(F)cc(Nc3ccc(I)cc3F)c2NS(=O)(=O)C2CC2)c1 [Example 12, N-(4-fluoro-2-[(2-fluoro-4-iodophenyl)amino]-6-{3-[(isopropylsulfonyl)amino]phenoxy}phenyl)cyclopropanesulfonamide]	36.1	32	0.729		
CCS(=O)(=O)Nc1cccc(Oc2cc(F)cc(Nc3ccc(I)cc3F)c2NS(=O)(=O)CC)c1 [Example 3, N-(3-{2-[(ethylsulfonyl)amino]-5-fluoro-3-[(2-fluoro-4-iodophenyl)amino]-phenoxy}phenyl)-ethanesulfonamide]	73.6	31.7	1.56		

Continued by falling IC50 [2], values first:

IC50 [1] [nM]	IC50 [2] [nM]	IC50 [3] [nM]	Structure (SMILES)	IC50 (MEK1/2)	colon cancer growth in vivo (colon cancer)
39.4	28.3	0.899	CCS(=O)(=O)Nc1cccc(Oc2cc(F)cc(Nc3ccc(I)cc3F)c2NS(C)(=O)=O)c1 [Example 2, N-(3-{5-fluoro-3-[(2-fluoro-4-iodophenyl)amino]-2-[(methylsulfonyl)-amino]phenoxy}-phenyl)ethane-sulfonamide]		
18.1	26.5	0.351	CCS(=O)(=O)Nc1cccc(Oc2cc(F)cc(Nc3ccc(I)cc3F)c2NS(=O)(=O)C2CC2)c1 [Example 1, N-(2-{3-[(ethylsulfonyl)amino]phenoxy}-4-fluoro-6-[(2-fluoro-4-iodophenyl)amino]phenyl)cyclopropanesulfonamide]		
4.78	10	0.68	CCS(=O)(=O)Nc1cccc(Oc2cc(F)cc(Nc3ccc(I)cc3F)c2NS(N)(=O)=O)c1C [Example 8, N-(3-{5-fluoro-3-[(2-fluoro-4-iodophenyl)amino]-2-(sulfamoylamino)phenoxy}-2-methylphenyl)ethanesulfonamide]		
6.65	7.04		NS(=O)(=O)Nc1cccc(Oc2cc(F)cc(Nc3ccc(I)cc3F)c2NS(=O)(=O)C2CC2)c1 [Example 11, N-{4-fluoro-2-[(2-fluoro-4-iodophenyl)amino]-6-[3-(sulfamoylamino)phenoxy]phenyl}cyclopropanesulfonamide]		
	3	0.171	CCS(=O)(=O)Nc1cccc(Oc2cc(F)cc(Nc3ccc(I)cc3F)c2NS(=O)(=O)C2CC2)c1C [Example 7, N-(2-{3-[(ethylsulfonyl)amino]-2-methylphenoxy}-4-fluoro-6-[(2-fluoro-4-iodophenyl)amino]phenyl)cyclopropanesulfonamide]		
